According to ChEMBL document CHEMBL3352570, “ST7612AA1, a thioacetate-ω(γ-lactam carboxamide) derivative selected from a novel generation of oral HDAC inhibitors” (J Med Chem, 2014):
pIC50: −log10 of the molar value.

Assays:
[1] = biological target: Histone deacetylase 1 (Homo sapiens, UniProt Q13547); test: Inhibition of HDAC1 (unknown origin) using fluorogenic tetrapeptide RHKK(Ac) substrate by fluorescence assay
[2] = biological target: Histone deacetylase 2 (Homo sapiens, UniProt Q92769); test: Inhibition of HDAC2 (unknown origin) using fluorogenic tetrapeptide RHKK(Ac) substrate by fluorescence assay
[3] = biological target: Histone deacetylase 3 (Homo sapiens, UniProt O15379); test: Inhibition of HDAC3 (unknown origin) using fluorogenic tetrapeptide RHKK(Ac) substrate by fluorescence assay
[4] = biological target: T1, Protein deacetylase HDAC6 (Homo sapiens, UniProt Q9UBN7); test: Inhibition of HDAC6 (unknown origin) using fluorogenic tetrapeptide RHKK(Ac) substrate by fluorescence assay
T1 sequence (Q9UBN7 whole entry): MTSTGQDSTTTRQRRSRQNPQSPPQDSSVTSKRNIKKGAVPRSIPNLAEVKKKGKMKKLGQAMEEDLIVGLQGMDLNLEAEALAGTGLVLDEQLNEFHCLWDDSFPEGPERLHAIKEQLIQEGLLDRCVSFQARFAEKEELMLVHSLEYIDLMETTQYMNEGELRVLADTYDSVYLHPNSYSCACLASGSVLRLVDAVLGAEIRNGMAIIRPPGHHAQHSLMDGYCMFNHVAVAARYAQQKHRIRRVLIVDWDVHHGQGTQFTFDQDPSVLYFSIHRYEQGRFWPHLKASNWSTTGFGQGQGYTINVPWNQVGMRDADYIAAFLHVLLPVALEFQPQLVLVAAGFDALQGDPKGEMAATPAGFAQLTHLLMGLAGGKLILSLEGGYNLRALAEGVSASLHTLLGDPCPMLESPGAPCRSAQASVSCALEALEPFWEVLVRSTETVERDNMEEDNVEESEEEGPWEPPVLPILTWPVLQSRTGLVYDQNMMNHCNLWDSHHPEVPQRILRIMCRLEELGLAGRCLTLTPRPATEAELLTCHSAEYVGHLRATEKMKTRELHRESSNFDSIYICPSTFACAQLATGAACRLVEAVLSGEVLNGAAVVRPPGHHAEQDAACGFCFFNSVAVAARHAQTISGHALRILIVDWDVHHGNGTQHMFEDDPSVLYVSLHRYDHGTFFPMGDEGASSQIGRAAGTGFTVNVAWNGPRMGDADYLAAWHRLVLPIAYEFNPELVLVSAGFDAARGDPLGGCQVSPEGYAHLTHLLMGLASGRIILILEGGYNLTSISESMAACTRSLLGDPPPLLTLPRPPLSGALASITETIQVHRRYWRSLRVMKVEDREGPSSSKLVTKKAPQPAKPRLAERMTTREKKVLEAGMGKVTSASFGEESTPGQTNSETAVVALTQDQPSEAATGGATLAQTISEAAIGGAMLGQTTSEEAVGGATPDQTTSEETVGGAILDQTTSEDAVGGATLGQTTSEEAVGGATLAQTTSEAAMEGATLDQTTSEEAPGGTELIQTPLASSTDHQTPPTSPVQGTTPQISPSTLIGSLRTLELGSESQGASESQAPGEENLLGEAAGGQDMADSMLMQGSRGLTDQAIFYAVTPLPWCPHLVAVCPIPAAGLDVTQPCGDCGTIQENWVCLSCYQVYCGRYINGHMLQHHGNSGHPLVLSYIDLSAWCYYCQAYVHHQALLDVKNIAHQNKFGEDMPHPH

[5] = biological target: T2, Histone deacetylase 8 (Homo sapiens, UniProt Q9BY41); test: Inhibition of HDAC8 (unknown origin) using fluorogenic tetrapeptide RHK(Ac)K(Ac) substrate by fluorescence assay
T2 sequence (Q9BY41 whole entry): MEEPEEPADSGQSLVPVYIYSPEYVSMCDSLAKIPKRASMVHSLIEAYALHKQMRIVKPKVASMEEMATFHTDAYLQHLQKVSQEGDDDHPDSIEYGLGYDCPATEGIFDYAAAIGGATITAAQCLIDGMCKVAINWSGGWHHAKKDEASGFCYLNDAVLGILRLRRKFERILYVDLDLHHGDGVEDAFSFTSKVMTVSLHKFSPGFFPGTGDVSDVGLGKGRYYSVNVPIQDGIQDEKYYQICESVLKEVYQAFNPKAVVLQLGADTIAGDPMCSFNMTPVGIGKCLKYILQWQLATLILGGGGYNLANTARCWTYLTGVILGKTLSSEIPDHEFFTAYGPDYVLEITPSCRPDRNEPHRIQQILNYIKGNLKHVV

[6] = biological target: T3, Polyamine deacetylase HDAC10 (Homo sapiens, UniProt Q969S8); test: Inhibition of HDAC10 (unknown origin) using fluorogenic tetrapeptide RHKK(Ac) substrate by fluorescence assay
T3 sequence (Q969S8 whole entry): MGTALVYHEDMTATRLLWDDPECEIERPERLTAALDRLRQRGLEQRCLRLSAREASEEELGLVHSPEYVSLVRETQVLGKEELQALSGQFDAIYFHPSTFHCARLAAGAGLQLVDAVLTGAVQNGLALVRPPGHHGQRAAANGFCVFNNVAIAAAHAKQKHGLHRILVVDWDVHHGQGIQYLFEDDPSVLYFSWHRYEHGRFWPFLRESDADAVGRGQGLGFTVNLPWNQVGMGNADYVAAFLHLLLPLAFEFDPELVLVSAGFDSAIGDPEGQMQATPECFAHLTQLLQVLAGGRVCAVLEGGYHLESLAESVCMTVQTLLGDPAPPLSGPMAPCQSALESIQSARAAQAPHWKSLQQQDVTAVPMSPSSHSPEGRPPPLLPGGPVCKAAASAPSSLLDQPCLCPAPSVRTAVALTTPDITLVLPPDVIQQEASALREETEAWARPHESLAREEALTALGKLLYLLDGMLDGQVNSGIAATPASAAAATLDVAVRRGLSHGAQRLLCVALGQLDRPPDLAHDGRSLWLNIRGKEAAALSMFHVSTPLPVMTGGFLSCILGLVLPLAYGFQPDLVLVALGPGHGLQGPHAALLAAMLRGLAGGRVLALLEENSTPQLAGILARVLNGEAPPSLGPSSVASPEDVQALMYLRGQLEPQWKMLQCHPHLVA

[7] = biological target: T4, Histone deacetylase 11 (Homo sapiens, UniProt Q96DB2); test: Inhibition of HDAC11 (unknown origin) using fluorogenic tetrapeptide RHKK(Ac) substrate by fluorescence assay
T4 sequence (Q96DB2 whole entry): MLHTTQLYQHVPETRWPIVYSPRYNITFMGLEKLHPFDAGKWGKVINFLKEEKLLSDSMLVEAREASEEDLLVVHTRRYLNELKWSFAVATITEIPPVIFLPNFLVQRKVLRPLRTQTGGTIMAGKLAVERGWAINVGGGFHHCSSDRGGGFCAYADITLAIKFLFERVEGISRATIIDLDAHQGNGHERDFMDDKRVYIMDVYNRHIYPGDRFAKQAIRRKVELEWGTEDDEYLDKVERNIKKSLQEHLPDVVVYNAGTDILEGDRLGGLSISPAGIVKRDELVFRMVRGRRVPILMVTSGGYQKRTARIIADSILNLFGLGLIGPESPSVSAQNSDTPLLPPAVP

Sequence of Histone deacetylase 3 (O15379 whole entry): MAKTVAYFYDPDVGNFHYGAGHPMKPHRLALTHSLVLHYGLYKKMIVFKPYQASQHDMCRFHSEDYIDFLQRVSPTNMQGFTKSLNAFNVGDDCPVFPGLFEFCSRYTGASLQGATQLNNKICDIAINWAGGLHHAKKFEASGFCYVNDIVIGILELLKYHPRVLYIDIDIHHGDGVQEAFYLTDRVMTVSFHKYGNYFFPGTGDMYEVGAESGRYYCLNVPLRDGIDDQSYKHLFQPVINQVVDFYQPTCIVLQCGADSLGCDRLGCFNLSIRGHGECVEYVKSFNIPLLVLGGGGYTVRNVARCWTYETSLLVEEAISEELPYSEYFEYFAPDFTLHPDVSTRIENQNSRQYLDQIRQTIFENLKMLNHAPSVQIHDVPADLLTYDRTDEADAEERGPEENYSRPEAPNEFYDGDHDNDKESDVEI
Sequence of Histone deacetylase 2 (Q92769 whole entry): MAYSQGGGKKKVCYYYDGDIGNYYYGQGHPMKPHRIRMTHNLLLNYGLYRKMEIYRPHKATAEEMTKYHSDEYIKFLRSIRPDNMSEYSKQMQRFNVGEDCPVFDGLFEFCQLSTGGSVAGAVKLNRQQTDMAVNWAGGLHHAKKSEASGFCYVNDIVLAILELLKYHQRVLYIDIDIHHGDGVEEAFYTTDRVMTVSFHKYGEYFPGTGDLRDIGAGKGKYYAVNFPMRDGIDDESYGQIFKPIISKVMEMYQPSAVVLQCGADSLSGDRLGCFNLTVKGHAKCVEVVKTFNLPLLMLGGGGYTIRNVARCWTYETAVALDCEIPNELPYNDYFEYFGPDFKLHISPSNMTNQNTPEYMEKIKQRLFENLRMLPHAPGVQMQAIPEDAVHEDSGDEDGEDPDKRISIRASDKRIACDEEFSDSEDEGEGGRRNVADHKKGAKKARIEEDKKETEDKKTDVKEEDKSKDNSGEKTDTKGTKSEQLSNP
Sequence of Histone deacetylase 1 (Q13547 whole entry): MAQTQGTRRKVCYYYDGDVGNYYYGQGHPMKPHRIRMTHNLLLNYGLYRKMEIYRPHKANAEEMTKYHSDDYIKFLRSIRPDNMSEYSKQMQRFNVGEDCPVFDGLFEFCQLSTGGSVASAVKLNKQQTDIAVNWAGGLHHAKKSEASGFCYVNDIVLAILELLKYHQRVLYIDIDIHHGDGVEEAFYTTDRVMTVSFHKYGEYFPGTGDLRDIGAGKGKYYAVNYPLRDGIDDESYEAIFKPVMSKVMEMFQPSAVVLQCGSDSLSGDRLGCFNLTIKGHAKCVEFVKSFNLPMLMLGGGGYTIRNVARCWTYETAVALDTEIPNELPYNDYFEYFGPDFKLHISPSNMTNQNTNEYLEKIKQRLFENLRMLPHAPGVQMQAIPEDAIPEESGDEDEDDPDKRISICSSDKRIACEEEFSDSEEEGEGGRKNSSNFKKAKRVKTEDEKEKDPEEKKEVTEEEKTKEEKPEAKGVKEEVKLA

Row | pIC50 [1] | pIC50 [2] | pIC50 [3] | pIC50 [4] | pIC50 [5] | pIC50 [6] | pIC50 [7] | SMILES
1 | 8.10 | 7.22 | 8.52 | 8.70 | 6.44 | 8.40 | 8.52 | Cc1ccc(NC(=O)[C@H](CCCCCS)NC(=O)[C@@H]2CCCC(=O)N2)cc1
2 | 8.40 | 7.85 | 8.52 | 8.70 | 6.97 | 8.40 | 8.30 | Cc1cccc(NC(=O)[C@H](CCCCCS)NC(=O)[C@H]2CCC(=O)N2)c1
3 | 8.52 | 8.30 | 8.30 | 9.00 | 7.00 | 8.70 | 7.92 | Cc1cccc(NC(=O)[C@H](CCCCCS)NC(=O)[C@H]2CCC(=O)N2C)c1
4 | 8.30 | 7.89 | 8.40 | 9.00 | 6.97 | 8.30 | 7.21 | Cc1cccc(NC(=O)[C@H](CCCCCS)NC(=O)[C@@H]2CCC(=O)N2)c1
5 | 7.96 | 7.15 | 8.15 | 8.52 | 6.69 | 8.22 | 8.30 | CN1C(=O)CCC[C@H]1C(=O)N[C@@H](CCCCCS)C(=O)Nc1ccccc1
6 | 7.62 | 7.48 | 7.89 | 9.00 | 7.23 | 7.82 | 7.52 | O=C1CC[C@@H](C(=O)N[C@@H](CCCCCS)C(=O)Nc2ccccc2)N1
7 | 8.15 | 7.55 | 8.52 | 9.00 | 7.21 | 8.05 | 8.05 | O=C1NCCC[C@H]1C(=O)N[C@@H](CCCCCS)C(=O)Nc1ccccc1
8 | 7.00 | 6.77 | 6.86 | 7.68 | 5.09 | 7.40 | 6.99 | O=C1CC[C@H](C(=O)N[C@H](CCCCCS)C(=O)Nc2ccccc2)N1
9 | 8.70 | 7.82 | 9.00 | 9.00 | 6.87 | 9.00 | 9.00 | Cc1cccc(NC(=O)[C@H](CCCCCS)NC(=O)[C@@H]2CCCC(=O)N2)c1
10 | 5.49 | 4.97 | 5.59 | 5.57 | 6.61 | 5.41 | 5.73 | Cc1cccc(CCNC(=O)CCCCCCS)c1
11 | 7.49 | 6.77 | 8.05 | 8.40 | 6.51 | 7.85 | 7.89 | O=C1NC[C@H](c2ccccc2)[C@@H]1C(=O)N[C@@H](CCCCCS)C(=O)Nc1ccccc1
12 | 5.22 | 4.71 | 5.57 | 5.28 | 6.43 | 5.20 | 5.68 | O=C(CCCCCCS)NCc1ccc(C(F)(F)F)cc1
13 | 8.10 | 7.17 | 8.10 | 8.70 | 7.21 | 8.05 | 8.00 | O=C1C[C@@H](C(=O)N[C@@H](CCCCCS)C(=O)Nc2ccccc2)N1
14 | 7.04 | 6.22 | 6.91 | 7.82 | 7.77 | 7.09 | 7.09 | Cc1cccc(CCNC(=O)[C@H](CCCCCS)NC(=O)[C@@H]2CCCC(=O)N2)c1
15 | 8.30 | 7.92 | 7.96 | 8.30 | 6.50 | 8.15 | 7.36 | O=C1CC[C@H](C(=O)N[C@@H](CCCCCS)C(=O)Nc2cccc(C(F)(F)F)c2)N1
16 | 6.30 | 5.60 | 6.31 | 7.08 | 8.05 | 6.18 | 6.53 | O=C1CCC[C@@H](C(=O)N[C@@H](CCCCCS)C(=O)NCc2cccc(OCc3ccccc3)c2)N1
17 | 7.92 | 7.32 | 8.30 | 9.00 | 6.91 | 7.96 | 7.82 | O=C1NCCC[C@@H]1C(=O)N[C@@H](CCCCCS)C(=O)Nc1ccccc1
18 | 7.82 | 7.17 | 8.00 | 8.22 | 6.38 | 7.96 | 8.22 | O=C1CCC[C@@H](C(=O)N[C@@H](CCCCCS)C(=O)Nc2ccccc2)N1
19 | 7.24 | 6.99 | 7.31 | 8.30 | 6.26 | 6.94 | 7.17 | CN1C(=O)CC[C@@H]1C(=O)N[C@@H](CCCCCS)C(=O)Nc1ccccc1
20 | 6.41 | 5.75 | 6.32 | 6.86 | 7.64 | 6.51 | 6.85 | O=C1CCC[C@@H](C(=O)N[C@@H](CCCCCS)C(=O)NCc2ccc(C(F)(F)F)cc2)N1
21 | 7.13 | 5.72 | 7.14 | 7.46 | 5.59 | 7.85 | 7.62 | O=C1NC[C@@H](c2ccccc2)[C@H]1C(=O)N[C@@H](CCCCCS)C(=O)Nc1ccccc1
22 | 8.00 | 7.47 | 8.22 | 8.30 | 6.97 | 7.49 | 8.00 | O=C1CCC[C@H](C(=O)N[C@@H](CCCCCS)C(=O)Nc2ccccc2)N1
